Assay results taken from patent US20120088262A1, “CYANINE COMPOUNDS, CONJUGATES AND METHOD OF USE” (Millipore Corporation, priority 2010, published 2012).

How the values were obtained:
[1] = Fluorescence excitation and emission spectrum of the dyes; assay type: physicochemical; conditions: for Em / emission max / Ex Peak / excitation max: solvent not given
live and dead cells = test: Cell viability detection with amine reactive viability dye by flow cytometry; assay type: cell-based; conditions: mix of live and dead cells
Protocol: Pipet 100 uL of prepared cells in biological buffer or media in a reaction vessel such as a tube or microwell plate. Add 100 uL of working solution to 100 uL cell sample; mix well and incubate at the room temperature for 15 minutes. Remove supernatant without disturbing the pellet. Wash the cells with PBS with bovine serum albumin (BSA) (range 0.2-10%) per well; centrifuge plate at 1000 rpm for 5 minutes; remove the supernatant by aspiration without disturbing the cell pellet.
Cells were killed by heat or treated with diamide or staurosporine inducers.

painted cells = test: Cell painting applications; assay type: cell-based

Row | Structure (SMILES) | Em ([1]; in Methanol) [nm] | Ex ([1]; in Methanol) [nm] | Em / emission max [1] [nm] | Ex Peak / excitation max [1] [nm] | absorption max ([1]; in Methanol) [nm] | separation of live and dead cells (live and dead cells) | utility for labeling and painting cells (painted cells) | retention of dye in painted cells (painted cells; 3 h time period) | localization of dye (painted cells; microscopy)
1 | O=C(Cc1ccc(CN2/C(=C/C=C/c3oc4ccccc4[n+]3Cc3ccc(CC(=O)ON4C(=O)CCC4=O)cc3)Oc3ccccc32)cc1)ON1C(=O)CCC1=O.[Br-] [Compound No. 10] | 508 | 490 | 507 | 489 | – | – | – | – | –
2 | CC(C(=O)O)c1ccc(C[N+]2=C(/C=C/C=C3\Oc4ccccc4N3Cc3ccc(CC(=O)O)cc3)C(C)(C)c3cc(S(=O)(=O)[O-])ccc32)cc1 (stereo not drawn) [Compound No. 11] | 541 | 510 | 542 | 510 | – | – | – | – | –
3 | CC(C(=O)ON1C(=O)CCC1=O)c1ccc(C[N+]2=C(/C=C/C=C3\Oc4ccccc4N3Cc3ccc(CC(=O)ON4C(=O)CCC4=O)cc3)C(C)(C)c3cc(S(=O)(=O)[O-])ccc32)cc1 (stereo not drawn) [Compound No. 12] | 541 | 510 | 541 | 510 | – | excellent separation of live and dead cells | – | – | –
4 | CC1(C)C(/C=C/C=C/C=C2\Oc3ccccc3N2Cc2ccc(CC(=O)ON3C(=O)CCC3=O)cc2)=[N+](Cc2ccc(CC(=O)ON3C(=O)CCC3=O)cc2)c2ccc(S(=O)(=O)[O-])cc21 [Compound No. 14] | 642 | 609 | 642 | 609 | 609 | can clearly distinguish live (low fluorescence) and dead cells (high fluorescence) | – | – | –

The next lines start with results.

Row | Em ([1]; in Methanol) [nm] | Ex ([1]; in Methanol) [nm] | Em / emission max [1] [nm] | Ex Peak / excitation max [1] [nm] | absorption max ([1]; in Methanol) [nm] | Structure (SMILES) | separation of live and dead cells (live and dead cells) | utility for labeling and painting cells (painted cells) | retention of dye in painted cells (painted cells; 3 h time period) | localization of dye (painted cells; microscopy)
5 | 507 | 489 | 507 | 489 | – | O=C(O)Cc1ccc(CN2/C(=C/C=C/c3oc4ccccc4[n+]3Cc3ccc(CC(=O)O)cc3)Oc3ccccc32)cc1.[Br-] [Compound No. 9] | – | – | – | –
6 | 679 | 650 | 642 | 609 | – | CC1(C)C(/C=C/C=C/C=C2/N(Cc3ccc(CC(=O)O)cc3)c3ccccc3C2(C)C)=[N+](Cc2ccc(CC(=O)O)cc2)c2ccccc21.[Br-] [Compound No. 16] | – | – | – | –
7 | 574 | 551 | 574 | 551 | – | Cc1ccc(CN2/C(=C/C=C/C3=[N+](Cc4ccc(C)cc4)c4ccccc4C3(C)C)C(C)(C)c3ccccc32)cc1.[Br-] [Compound No. 18] | – | good utility for painting cells | – | –
8 | 674 | 650 | 674 | 650 | – | Cc1ccc(CN2/C(=C/C=C/C=C/C3=[N+](Cc4ccc(C)cc4)c4ccccc4C3(C)C)C(C)(C)c3ccccc32)cc1.[Br-] [Compound No. 19] | – | good utility for labeling and painting cells | good retention of dye | localized intracellularly
